Measured values as given in patent US20240400572A1, “COMPOUNDS AND METHODS FOR TREATING CANCERS THAT ARE MGMT DEFICIENT REGARDLESS OF MMR STATUS” (Yale University, priority 2021, published 2024).

Tested on: four isogenic LN229 glioblastoma cell lines (MGMT+/−, MMR+/−)
Type: cell-based
Conditions: IC50 in MGMT proficient and MMR proficient cells divided by IC50 in MGMT deficient and MMR deficient cells (FIG. 8)
Experimental: Short-term Cell Viability Assay. Cells were seeded in 96-well plates at 1000 or 2000 cells/well and allowed to adhere at 23° C. for 60 min and then incubated overnight at 37° C. Cells were treated with indicated concentrations of compounds in triplicate for 4-6 days prior to fixation with 3.7% paraformaldehyde and nuclear staining with 1 μg/mL Hoechst 33342 dye. Cells were imaged on a Cytation 3 imaging reader (BioTek) and quantified using CellProfiler software.
Statistical analysis. Statistical analysis was performed using GraphPad Prism software. Data are presented as mean or median±SD or SEM as indicated. For in vitro short-term growth delay experiments, IC50 values were determined from the nonlinear regression equation, [inhibitor] vs normalized response with variable slope. For micronuclei assays, comparisons were made with one-way ANOVA and Sidak correction for multiple comparisons. For xenograft growth delay experiments, comparisons were made with Mann-Whitney test (for comparison of 2 groups) or Kruskal-Wallis test with FDR-adjusted p-values with Q set to 5% (for comparison of ≥3 groups). For xenograft survival analysis, Kaplan-Meier analysis was used to evaluate survival rate based on death or removal from study when body weight loss exceeded 20% of initial body weight
We synthesized the imidazotetrazine 4a (KL-50) and the triazene 4b (KL-85), as vehicles to deliver 2-fluoroethyl diazonium (4c), and a series of related agents to probe structure-activity relationships in tissue culture (FIG. Z1, D and F). The 2-fluoropropyl- and 3-fluoropropyl-triazenes (10 and 11, respectively) were prepared by diazotization of 4-aminoimdazole-5-carboxamide, followed by the addition of the respective amine. All other triazenes were prepared according to literature procedures. We evaluated the cytotoxicity of our compounds in short-term cell viability assays against four isogenic LN229 glioblastoma cell lines engineered to be proficient or deficient in MGMT and/or MMR activity, using short hairpin RNAs (shRNAs) targeting MSH2 (referred to as MGMT+/−, MMR+/− cells hereafter; FIG. ZS2A). This approach allowed us to rapidly and rigorously interrogate the relationship between MGMT and MMR status and compound activity.
The compounds 10a through 10l and TMZ were tested in the short-term cell viability assay.

## Cn1nnc2c(C(N)=O)ncn2c1=O [TMZ, temozolomide, reference compound]
  therapeutic index: less than one
